Tests used:
healthy volunteers [1] = assay: Karolinska Sleepiness Scale
healthy volunteers [2] = assay: Peak Saccadic Velocity
healthy volunteers [3] = assay: Subjective feelings on VAS
healthy volunteers [4] = details: in vivo
healthy volunteers [5] = assay: Quantitative EEG profiling
healthy volunteers [6] = assay: ARCI 49 abuse liability checklist
healthy volunteers [7] = assay: Digit Symbol Substitution Test
patients with PTSD = details: 12‐week; cited from earlier work
healthy volunteers [8] = assay: PEPSY psychometric test battery; format: in vivo, human; details: up to 1000 mg BID for 8 days; Day 1 and Day 8
[9] = Plasma PK, food effect SAD trial BNC210.002; format: in vivo, human; details: suspension
[10] = system: mouse and rat behavioral models of anxiety and stress‐related disorders; details: cited from earlier work
healthy volunteers [11] = assay: CCK‐4 induced panic model; format: in vivo, human; details: 2000 mg
[12] = Plasma PK, 7-day trial BNC210.011; format: in vivo, human
[13] = Urinary excretion of unchanged drug, trial BNC210.001; format: in vivo, human; details: suspension, fasted
healthy volunteers [14] = assay: Neuroendocrine biomarkers serum cortisol and ACTH; details: Phase 1 trials
healthy volunteers [15] = assay: Safety and tolerability, Phase 1 trials; format: in vivo, human
patients with GAD = details: cited from earlier work
[16] = Plasma PK, single ascending dose trial BNC210.001; format: in vivo, human; details: suspension, fasted
[17] = suspension taken with food, out‐patient, NCT02933606; cited from earlier work
α7 nAChR = α7 nAChR (Homo sapiens, UniProt P36544); assay: Nicotine shift assay, qEEG α2 band; format: in vivo; details: 1,000 mg BID; particularly with 2 mg nicotine
[18] = Plasma PK, SAD trial BNC210.010; format: in vivo, human; details: 150 mg‐strength tablet, fasted, up to 1200 mg
[19] = Plasma PK, multiple ascending dose trial BNC210.005; format: in vivo, human
[20] = Plasma PK, suspension vs 150 mg tablet cross-over trial BNC210.009; format: in vivo, human; details: 300 mg tablet
[21] = system: social anxiety disorder patients; details: as‐needed acute dosing, NCT05193409; cited from earlier work
[22] = Phase 1 trials in healthy volunteers, N = 173

α7 nAChR, sequence (P36544 23-502): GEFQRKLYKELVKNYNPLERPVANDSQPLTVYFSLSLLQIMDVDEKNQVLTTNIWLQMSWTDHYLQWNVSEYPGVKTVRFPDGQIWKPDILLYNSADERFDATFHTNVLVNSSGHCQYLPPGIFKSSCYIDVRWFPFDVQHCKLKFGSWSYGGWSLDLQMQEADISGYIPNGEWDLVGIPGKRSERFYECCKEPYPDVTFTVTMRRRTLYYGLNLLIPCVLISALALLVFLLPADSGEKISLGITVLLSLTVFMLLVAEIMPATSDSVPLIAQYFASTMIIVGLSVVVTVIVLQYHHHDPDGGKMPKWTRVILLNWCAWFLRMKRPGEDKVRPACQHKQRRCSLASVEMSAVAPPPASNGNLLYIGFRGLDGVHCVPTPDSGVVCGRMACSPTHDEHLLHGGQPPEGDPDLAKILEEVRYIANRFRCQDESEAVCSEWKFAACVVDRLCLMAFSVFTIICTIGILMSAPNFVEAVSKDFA

O=C1Nc2ccc(Cl)cc2C(c2ccccc2Cl)=NC1O (stereo not shown) [lorazepam, reference compound]
Karolinska Sleepiness Scale vs placebo (healthy volunteers [1]; 2 mg, 6‐h (P < 0.001), 9‐h (P < 0.05)): significant increase in the feeling of sleepiness
Peak saccadic velocity (mean maximum) vs placebo (healthy volunteers [2]; 2 mg, 6, 9, and 12 h (P < 0.001)): significantly slower
eVAS mood vs placebo (healthy volunteers [3]; 2 mg, trial BNC210.003, 6 h time point, P < 0.05): mood‐lowering effect
Total reaction time vs placebo (healthy volunteers [4]): significantly higher
qEEG delta activity vs placebo (healthy volunteers [5]; 2 mg): increased delta activity during both the Resting and Vigilance‐Controlled conditions
ARCI 49 benzedrine subscale vs placebo (healthy volunteers [6]; 2 mg, P = 0.056): tended to score lower
Digit Symbol Substitution Test vs placebo (healthy volunteers [7]; 2 mg, 6‐h (P < 0.001), 9‐hour (P < 0.05)): significant effect

CCn1cc(C(=O)N2CCOCC2)c(=O)c2cc(NC3Cc4ccccc4C3)cnc21 [BNC210]
Karolinska Sleepiness Scale vs placebo (healthy volunteers [1]; 300 and 2000 mg): no increase in sleepiness
PTSD total symptom severity scores, depression, insomnia vs placebo (patients with PTSD): effective at significantly reducing
Cognition, PEPSY test battery (healthy volunteers [8]): no overall consistent effect on cognition
Peak saccadic velocity vs placebo (healthy volunteers [2]; 300 and 2000 mg): did not show any significant effect
Increase in AUC with food ([9]; 300 mg, fed vs fasted): 3.5 fold
Increase in Cmax with food ([9]; 300 mg, fed vs fasted): more than doubling
Increase in AUC at 2000 mg over 1200 mg ([9]; fed): 15%
Dose proportionality of exposure ([9]; fed, 600 and 1200 mg): approximately dose‐proportional
Subjective feelings on VAS (16‐item Bond and Lader or eVAS) (healthy volunteers [3]; trials BNC210.001, .002, .003, .005, basal state): No effects on subjective feelings
Activity in behavioral models of anxiety and stress‐related disorders ([10]; broad therapeutic dosage range): effective
Side effects in rodent models ([10]; preclinical pharmacology and toxicology studies): did not elicit sedation, memory or motor impairment, or physical dependence
eVAS emotional stability vs placebo (healthy volunteers [11]; 5 min post CCK‐4 injection, P = 0.104): trend
PSS Sum Intensity score vs placebo (healthy volunteers [11]; 10 min post CCK‐4 injection, 15 evaluable responders, P < 0.041): significant reduction
PSS Total Symptom score vs placebo (healthy volunteers [11]; 10 min post CCK‐4 injection, 15 evaluable responders, P < 0.048): significant reduction
Day from which steady state achieved ([12]; 225 mg‐strength tablet, 900 mg BID): 3 days
Steady state AUC0‐12, tablet 900 mg BID vs suspension 1000 mg BID ([12]; in vivo): double
Total reaction time vs placebo (healthy volunteers [4]): no increases in total reaction time
Drug excreted unchanged in the urine ([13]; single 5 mg): 13.6 % of the dose administered
Drug excreted unchanged in the urine ([13]; single 2000 mg): 0.6 % of the dose administered
Effect on serum cortisol or ACTH (healthy volunteers [14]): No consistent effects
qEEG alpha power (healthy volunteers [5]; 300 mg dose only): small decrease in alpha power
qEEG delta activity vs placebo (healthy volunteers [5]; 300 and 2000 mg): increased delta EEG activity in the resting condition, but not the Vigilance‐Controlled condition
qEEG delta power (healthy volunteers [5]; 300 and 2000 mg): some increase in delta power in the Resting condition only
Overlap of EEG profile with lorazepam (healthy volunteers [5]; in vivo): little overlap in EEG profiles
qEEG beta‐3 (healthy volunteers [5]; in vivo): only a slight increase
TEAE Fatigue (healthy volunteers [15]; [22]): 7 (4.1) n (%)
TEAE Headache (healthy volunteers [15]; [22]): 35 (20.2) n (%)
TEAE Nausea (healthy volunteers [15]; [22]): 8 (4.6) n (%)
TEAE Somnolence (healthy volunteers [15]; [22]): 16 (9.3) n (%)
Dose relationship of CNS TEAEs (headache, somnolence, nausea, fatigue) (healthy volunteers [15]; SAD and MAD trials): did not suggest a dose relationship
Serious adverse events (healthy volunteers [15]; eight Phase 1 trials): no serious adverse events were reported
Maximum tolerated dose (healthy volunteers [15]; up to 2000 mg suspension and 1200 mg tablet): No maximum tolerated dose was found
ARCI 49 checklist (healthy volunteers [6]; trials BNC210.003, BNC210.004, BNC210.005): No clinically significant feelings associated with any classes of drugs of abuse
Threat avoidance behavior and self‐reported anxiety (patients with GAD): significantly reduced
Change in exposure with dose ([16]; beyond 600 mg): no appreciable further increase in exposure
Dose proportionality of AUC and Cmax ([16]; dose levels up to 50 mg): increased approximately dose proportionately
Plasma levels, population PK analysis [17]: appreciably lower than expected
Extent of inhibition of nicotine‐induced α2 band response (α7 nAChR): partial
Dose proportionality of Cmax and AUC [18]: increased proportionally with dose
Dose proportionality of exposures ([19]; suspension BID, increasing dose levels): less than dose‐proportional
Mean steady state AUC0–12 ([19]; suspension, 1000 mg BID (2000 mg/day)): 24900 ng·h/mL
Day steady state achieved ([19]; suspension, 150 and 300 mg BID): 2 days
Day steady state achieved ([19]; suspension, 600 and 1000 mg BID): 6 days
Tmax ([20]; fasted): 2 h
Tmax ([20]; fed): 4 h
Anxiety levels vs placebo [21]: improvements in anxiety levels
Digit Symbol Substitution Test vs placebo (healthy volunteers [7]; 300 mg, 6‐h P < 0.05): no effects with 300 mg, except at the 6‐h time point only
Digit Symbol Substitution Test vs placebo (healthy volunteers [7]; 2000 mg): no effects at any time point

— paper PMC12856972 (Clinical Pharmacology in Drug Development, 2025)
